Test results from patent EP0547317A1, “Endothelin antagonists” (TAKEDA CHEMICAL INDUSTRIES, LTD., priority 1991, dated 1993).
Bridge positions count the residues as written; N and C are the ends. Peptide text beside a SMILES is read from it.

System: porcine coronary smooth muscles
Experiment: Assay of constrictor suppressing activity on porcine coronary smooth muscles (antagonism of endothelin-1 constriction)
Type: cell-based
Conditions: for pA₂: antagonistic activity on constriction by endothelin-1 given cumulatively about 15 minutes after the compound, negative logarithm of molar concentration of antagonist shifting the dose response curve by a factor of 2; for Relative potency: antagonistic activity on the constriction of porcine coronary smooth muscles, Example 1 = 100
Procedure: • (1) Assay of Constrictor Suppressing Activity on Porcine Coronary Smooth Muscles Spiral strips 2 mm x 15 mm prepared from the coronary right ramus circumflexus from which the adventitial connective tissues and the endothelial cells were removed were set to 4 ml organ baths. The tension of each strip was detected by a force displacement transducer UL-10GR (Minebea), and recorded by a polygraph (NEC Sanei). The organ baths were maintained at 37°C, and filled with a Krebs-Henseleit solution (composition: 118 mM NaCl, 4.7 mM KCl, 2.5 mM CaCl₂, 1.2 mM KH₂PO₄, 25.0 mM NaHCO₃, 1.2 mM MgSO₄, 10.0 mM glucose) gassed with 95% O₂ and 5% CO₂. A tension of 1.25 to 1.5 g was applied to each of the strips, followed by equilibration for 1.5 hours. 60 mM KCl was repeatedly applied thereto at intervals of 30 minutes until the constriction response became constant. After additional equilibration for 1.5 hours, a sample for assay was given thereto. The constriction of the strips was normalized by the constriction response of the individual strips to 60 mM KCl and statistically processed. The suppressing activity was determined as a pA₂ value by giving endothelin-1 cumulatively about 15 minutes after the compound having a predetermined concentration was given, and comparing the constriction thereof with that of a control sample in which only endothelin-1 was given. […] Such a case has not been reported yet. […] The affinity for the receptor was assayed by the following method.

Compound	pA₂	Relative potency
CC[C@H](C)[C@H](NC(=O)[C@H](CC(C)C)NC(=O)[C@@H](NC(=O)[C@H](CC(C)C)NC(=O)[C@H](Cc1c[nH]cn1)NC(=O)[C@@H]1CSSC[C@H](N)C(=O)N[C@@H](CO)C(=O)N[C@H]2CSSC[C@H](NC(=O)[C@H](CCC(=O)O)NC(=O)[C@H](CCCCN)NC(=O)[C@H](CC(=O)O)NC(=O)[C@H](CCSC)NC(=O)[C@H](CC(C)C)NC(=O)[C@H](CO)NC(=O)[C@H](C)NC2=O)C(=O)N[C@@H](C(C)C)C(=O)N[C@@H](Cc2ccc(O)cc2)C(=O)N[C@@H](Cc2ccccc2)C(=O)N1)[C@@H](C)O)C(=O)N[C@@H](Cc1c[nH]c2ccccc12)C(=O)O [Example 13, [Ala⁴, Thr¹⁸, Leu¹⁹]-ET-1] (H-CSCASLMDKECVYFCHLTLIW-OH; disulfide 1-15, 3-11)	6.9	16
CC[C@H](C)[C@H](NC(=O)[C@H](CC(C)C)NC(=O)[C@@H](NC(=O)[C@H](CC(C)C)NC(=O)[C@H](Cc1c[nH]cn1)NC(=O)[C@@H]1CSSC[C@H](N)C(=O)N[C@@H](CO)C(=O)N[C@H]2CSSC[C@H](NC(=O)[C@H](CCC(=O)O)NC(=O)[C@H](CCCCN)NC(=O)[C@H](CC(=O)O)NC(=O)[C@H](CCSC)NC(=O)[C@H](CC(C)C)NC(=O)[C@H](C)NC(=O)[C@H](CO)NC2=O)C(=O)N[C@@H](C(C)C)C(=O)N[C@@H](Cc2ccc(O)cc2)C(=O)N[C@@H](Cc2ccccc2)C(=O)N1)[C@@H](C)O)C(=O)N[C@@H](Cc1c[nH]c2ccccc12)C(=O)O [Example 14, [Ala⁵, Thr¹⁸, Leu¹⁹]-ET-1] (H-CSCSALMDKECVYFCHLTLIW-OH; disulfide 1-15, 3-11)	5.5	0.6
CC[C@H](C)[C@H](NC(=O)[C@H](CC(C)C)NC(=O)[C@@H](NC(=O)[C@H](CC(C)C)NC(=O)[C@H](Cc1c[nH]cn1)NC(=O)[C@@H]1CSSC[C@H](N)C(=O)N[C@@H](CO)C(=O)N[C@H]2CSSC[C@H](NC(=O)[C@H](CCC(=O)O)NC(=O)[C@H](CCCCN)NC(=O)[C@H](CC(=O)O)NC(=O)[C@H](CCSC)NC(=O)[C@H](C)NC(=O)[C@H](CO)NC(=O)[C@H](CO)NC2=O)C(=O)N[C@@H](C(C)C)C(=O)N[C@@H](Cc2ccc(O)cc2)C(=O)N[C@@H](Cc2ccccc2)C(=O)N1)[C@@H](C)O)C(=O)N[C@@H](Cc1c[nH]c2ccccc12)C(=O)O [Example 15, [Ala⁶, Thr¹⁸, Leu¹⁹]-ET-1] (H-CSCSSAMDKECVYFCHLTLIW-OH; disulfide 1-15, 3-11)	6.5	6
CC[C@H](C)[C@H](NC(=O)[C@H](CC(C)C)NC(=O)[C@@H](NC(=O)[C@H](CC(C)C)NC(=O)[C@H](Cc1c[nH]cn1)NC(=O)[C@@H]1CSSC[C@H](N)C(=O)N[C@@H](CO)C(=O)N[C@H]2CSSC[C@H](NC(=O)[C@H](CCC(=O)O)NC(=O)[C@H](CCCCN)NC(=O)[C@H](CC(=O)O)NC(=O)[C@H](C)NC(=O)[C@H](CC(C)C)NC(=O)[C@H](CO)NC(=O)[C@H](CO)NC2=O)C(=O)N[C@@H](C(C)C)C(=O)N[C@@H](Cc2ccc(O)cc2)C(=O)N[C@@H](Cc2ccccc2)C(=O)N1)[C@@H](C)O)C(=O)N[C@@H](Cc1c[nH]c2ccccc12)C(=O)O [Example 16, [Ala⁷, Thr¹⁸, Leu¹⁹]-ET-1] (H-CSCSSLADKECVYFCHLTLIW-OH; disulfide 1-15, 3-11)	7.2	32
